Experimental data from patent US8940865B2, “Myocardial peptide, preparation method and uses thereof” (Dalian Zhen-Ao Pharmaceutical Co, Ltd., priority 2008, dated 2015).

Columns and labels:
[1] = test system: primary culture myocardium cell damaged by adriamycin; test: Effect of CMPC against adriamycin injury of primary culture myocardium cell (MTT); assay type: cell-based, Neonatal SD rat
Procedure: Remove the fibroblast through differential adhesion and chemistry method, and inoculate myocardium cell on the 96-well plates.
2.1.2 The Against Function of Cmpc to Injury of Adriamycin to Primary Culture Myocardium Cell.
Cell culture method is the same as 2.1.1
Preparation of model: Blank Control Group: cultivating myocardium cell with DMEM-H-15;
Model Group: adding 1 mg/L adriamycin, washing the plate with DMEM-H-15 two times after being cultivated for 1 h, adding DMEM-H-15 for cultivation;
Protective rate=(Ax−Amodel)/(Acontrol−Amodel)×100%;
(Ax, Amode, Acontrol respectively represent Absorbance value of Drug administration groups, Model Group and Blank control group.

[2] = test system: primary culture myocardium cell damaged by hypoxia/reoxygenation; test: Anti-hypoxia/reoxygenation injury effect on primary culture myocardium cell (MTT); assay type: cell-based, Neonatal SD rat
Source text: Take ventricle from Neonatal SD rat, wash with D-Hank's and cut to small pieces, digest with collagenase II to obtain the myocardium cell and fibroblast, which are cultivated with high glucose DMEM (dmem-h-15) culture medium containing 15% fetal bovine serum. Remove the fibroblast through differential adhesion and chemistry method, and inoculate myocardium cell on the 96-well plates.
2.1.3 Anti-Hypoxia/Reoxygenation Injury Effect of CMPC to Primary Culture Myocardium Cell.
Cell cultivation method is the same as that in 2.1.1
Preparation of model: Preparing the model by using the myocardium cell cultured for 48˜72 h, dividing the cell on the culture plate to following groups: Control Group, Model Group, Verapamil Group (2, 0.4, 0.08 mg/l final concentration) and CMPM Group (final concentration of 50, 10, 2, 0.4, 0.08, 0.016, 0.0032 mg/l), 3 wells for every group. Except the Control Group, the other groups are prepared by following method: placing the monolayer myocardium cell on center of culture plate on low glucose medium (containing Verapamil or CMPM with corresponding concentration), then placing the culture plate into the vacuum drying machine, filling nitrogen, and hermetically culturing, causing myocardial injury after oxygen lack for 15 hours, then being cultured for 1 hour by high glucose DMEM medium (95% atmosphere and 5% CO2) to cause reoxygention injury. Measuring the absorbance value at 540 nm by using MTT method, and the same as above, calculating the protective rate to figure out EC50.

[3] = test system: ischemia/reperfusion damaged rat; test: Preventive administration, ischemia/reperfusion (LAD ligation) rat model; assay type: in vivo, SD rat; settings: preventive i.v. 30 min before ligation, Dosage 1.0 mg/kg
Procedure: 70 SD rats (250˜300 g per rat) were taken, wherein, 60 rats were divided into 6 groups evenly and randomly according to weight, every 10 of each group, the remains are kept for replacement of dead animals of each group.
Normal Control Group: carrying out sham operation, threading a silk suture through the left anterior descending coronary artery (LAD) without ligation;
Model Group: intravenous injecting saline solution of 5 ml/kg 30 minutes before ligation, and the preparation of hypoxia/reoxygenation model is the same as Normal Control Group;
Positive Control Group: intravenous injecting Verapamil of 1 ml/kg 30 min before ligation, preparation of the hypoxia/reoxygenation model is the same as Normal Control Group. […]
Preparation of the Model:
(§1) Intraperitoneal injecting 6% Urethane with 20 ml/kg to anaesthetize the animal, fixing the animal on operating table in supine position; being connected with the electrocardiograph to detect the limb II lead electrocardiogram, tracheal intubating and connecting the animal with respirators, taking continuous positive end-expiratory pressure with tidal volume of 6 ml/200 g, frequency of 55/min and breathing ratio of 2:1. Carrying out thoracotomy on the gap between the forth and the fifth ribs of the left border of sternum, separating the ribs and removing the pericardium. Ligating at the left anterior descending coronary artery by using 6/0 silk suture by the sign of left auricle lower margin, and setting a piece of polyethylene pipe with diameter of 1 mm between the ligation silk suture and blood vessel. Ligating the silk suture to press the left anterior descending coronary artery by the polyethylene pipe and cause myocardial ischemia. Taking part of myocardium becoming grey and electrocardiogram S-T segment raising as the sign of that the left anterior descending coronary artery is ligated successfully. Taking out the polyethylene pipe carefully to cause the reperfusion. Verifying the success of reoxygenation by reactive hyperemia of ischemia area and the descending of the raised S-T segment by ½. Reoxygenation for 30 minutes, then sampling blood from abdominal aorta to prepare serum which is used to measure the biochemical index (measuring the content of CK, LDH, MDA, SPD according to the Reagent kits Instruction).
(§2) Rat's heart was taken and after being blooded, the residual blood in the ventricle was cleaned by normal saline to weight the weight of whole heart. Fat was removed, the heart was crosscut into 4˜5 pieces and was put into a tube, to be carried out NBT dye at 37° C. (dying the normal tissue rather than the ischemic tissue), taking photographs. The ischemic area of the myocardium was cut to take a weighing, and then the myocardial infarct size (MIS) was calculated by the ratio of weight of the ischemic area of the myocardium to whole heart weight, which was present by percentage.

[4] = test system: ischemia/reperfusion damaged rat; test: Therapeutic administration, ischemia/reperfusion (LAD ligation) rat model; assay type: in vivo, SD rat; settings: therapeutic i.v. 5 minutes after ligation, Dosage 1.0 mg/kg
Procedure: as §1, §2
The drug was intravenously injured on the tail 5 minutes after ligation of LAD, then reperfusion was carried out for 30 min 30 minutes after ligation of LAD. Heart was taken after sampling blood from abdominal aorta. The biochemical index and the myocardial infarction size were measure by using the above method.

Q: What does the source list for `COc1ccc(CCN(C)CCCC(C#N)(c2ccc(OC)c(OC)c2)C(C)C)cc1OC` (stereo not shown) [Positive Control Group, Verapamil, reference compound]?
A: % (protective rate) ([1]; Plate 1, Dosage 0.08 mg/L): 31.53%; A540 ([1]; Plate 1, Dosage 0.08 mg/L): 0.694 ± 0.110; % (protective rate) ([1]; Plate 1, Dosage 0.4 mg/L): 50.23%; A540 ([1]; Plate 1, Dosage 0.4 mg/L): 0.714 ± 0.021; % (protective rate) ([1]; Plate 1, Dosage 2 mg/L): 46.83%; A540 ([1]; Plate 1, Dosage 2 mg/L): 0.710 ± 0.099; % (protective rate) ([1]; Plate 2, Dosage 0.08 mg/L): 30.45%; A540 ([1]; Plate 2, Dosage 0.08 mg/L): 0.749 ± 0.031; % (protective rate) ([1]; Plate 2, Dosage 0.4 mg/L): 30.29%; A540 ([1]; Plate 2, Dosage 0.4 mg/L): 0.749 ± 0.050; % (protective rate) ([1]; Plate 2, Dosage 2 mg/L): 46.68%; A540 ([1]; Plate 2, Dosage 2 mg/L): 0.767 ± 0.045; % (protective rate) ([1]; Plate 3, Dosage 0.08 mg/L): 30.09%; A540 ([1]; Plate 3, Dosage 0.08 mg/L): 0.755 ± 0.021; % (protective rate) ([1]; Plate 3, Dosage 0.4 mg/L): 37.28%; A540 ([1]; Plate 3, Dosage 0.4 mg/L): 0.770 ± 0.012; % (protective rate) ([1]; Plate 3, Dosage 2 mg/L): 36.18%; A540 ([1]; Plate 3, Dosage 2 mg/L): 0.768 ± 0.013; % (protective rate) ([2]; Plate 1, Dosage 0.08 mg/L): 14.16%; A540 ([2]; Plate 1, Dosage 0.08 mg/L): 0.524 ± 0.036; % (protective rate) ([2]; Plate 1, Dosage 0.4 mg/L): 20.15%; A540 ([2]; Plate 1, Dosage 0.4 mg/L): 0.541 ± 0.029; % (protective rate) ([2]; Plate 1, Dosage 2 mg/L): 12.87%; A540 ([2]; Plate 1, Dosage 2 mg/L): 0.520 ± 0.060; % (protective rate) ([2]; Plate 2, Dosage 0.08 mg/L): 23.85%; A540 ([2]; Plate 2, Dosage 0.08 mg/L): 0.553 ± 0.031; % (protective rate) ([2]; Plate 2, Dosage 0.4 mg/L): 33.18%; A540 ([2]; Plate 2, Dosage 0.4 mg/L): 0.579 ± 0.028; % (protective rate) ([2]; Plate 2, Dosage 2 mg/L): 29.63%; A540 ([2]; Plate 2, Dosage 2 mg/L): 0.569 ± 0.029; % (protective rate) ([2]; Plate 3, Dosage 0.08 mg/L): 30.62%; A540 ([2]; Plate 3, Dosage 0.08 mg/L): 0.787 ± 0.020; % (protective rate) ([2]; Plate 3, Dosage 0.4 mg/L): 35.44%; A540 ([2]; Plate 3, Dosage 0.4 mg/L): 0.795 ± 0.022; % (protective rate) ([2]; Plate 3, Dosage 2 mg/L): 41.37%; A540 ([2]; Plate 3, Dosage 2 mg/L): 0.805 ± 0.018; MIS (myocardial infarct size) ([3]; ischemic area weight/whole heart weight): 4.19 ± 0.70 %; CK ([3]; rat serum): 2.087 ± 0.432 U/ml; LDH ([3]; rat serum): 7376.09 ± 784.64 U/L; MDA ([3]; rat serum): 4.755 ± 0.718 nmol/mL; SOD ([3]; rat serum): 135.63 ± 7.878 U/ml; CK ([4]; rat serum): 1.777 ± 0.389 U/ml; LDH ([4]; rat serum): 6791.96 ± 570.85 U/L; MDA ([4]; rat serum): 4.960 ± 0.338 nmol/mL; SOD ([4]; rat serum): 140.36 ± 14.00 U/ml; MIS (myocardial infarct size) [4]: 4.07 ± 1.56 %
